In patent US8663668B2, “Preservative for medical devices” (Fresenius Medical Care Deutschland GmbH, priority 2004, dated 2014):

Experiment: antimicrobial effectiveness test (USP 27), disinfectant/preservative effect
Format: cell-based
Settings: additive alone
Excerpt: Within the context of the present invention, preferably poly(hexamethylene)biguanide having a molecular weight of 2900 to 15,000 (PHMB) is used as the biguanide compound. An especially preferred disinfection solution contains PHMB in a concentration of 0.01% to 0.5% by weight, where concentrations of 0.02% to 0.06% by weight are especially advantageous. A neutral buffer containing phosphate, and preferably also containing the following substances is used as the medium: sodium citrate dihydrate, sodium acetate trihydrate, sodium chloride, sodium monohydrogen phosphate, potassium dihydrogen phosphate. Such a solution effectively disinfects and preserves the aforementioned medical devices and is in compliance with the requirements of the “antimicrobial effectiveness tests” described in USP 27 (United States Pharmacopoeia).
An adsorber column of the type IMMUNOSORBA (Fresenius Adsorber Technology GmbH) is used to remove antibodies from blood plasma and binds the antibodies via protein A of Staphylococcus aureus. This adsorber column is filled with a solution according to Example 1.

SMILES: N[C@@H](Cc1c[nH]c2ccccc12)C(=O)O [Tryptophan, tryptophan]
- disinfectant effect: does not have any disinfectant effect
